Assay results: publication PMC6815956, “Bioinspired Self-assembling Peptide Hydrogel with Proteoglycan-assisted Growth Factor Delivery for Therapeutic Angiogenesis” (Theranostics, 2019)

Tests used:
[1] = Isothermal titration calorimetry, binding of HS to LRK; settings: ITC, 25 °C, PBS
Procedure: Isothermal titration calorimetry (ITC) measurements were operated at 25 °C using a Micro ITC-200 microcalorimeter (GE Healthcare Life Sciences). The procedure was performed by titrating 0.35 mM HS from a syringe into 0.2 mM RADA16-LRK peptide solution loaded in a cell (both in PBS). In the next step, the data were integrated after background correction and fitted to a curve to obtain the binding constant.
To test the binding affinity between HS and […] peptide sequence, the molecular interactions between LRK sequence and HS were studied by ITC. Heat changes were recorded when the increments of HS solution were titrated drop by drop into functionalized peptide LRK solution. The binding constant Ka = [drawing 5] M^-1 was then obtained by approximating the integrated data into a fitting curve (Figure 4A).

[2] = Circular dichroism spectroscopy (secondary structure); type: physicochemical; settings: 0.05 % (w/v)
Procedure: Circular dichroism (CD) spectra were collected on a CD Spectrometer Model 410 (AVIV Biomedical Inc.) to explore the secondary structure of SAPs. The cuvette quartz cell's path length was 1mm with a wavelength range between 190-260 nm at ambient temperature. The 0.05 % (w/v) RADA16-QLK, RADA16-LRK, and HS solution were allowed to store at 4 °C overnight to ensure complete self-assembly before measurement.
(§1) TEM images were obtained to identify the morphological change of nanofiber microstructure before and after enzymatic crosslinking. […] From the findings of TEM and AFM images, the interwoven nanofibers with diameters of 10-20 nm and pore sizes between 10-200 nm were similar to natural ECM fibers in both appearances and scales (Figure 2B-E).

[3] = TEM and AFM of nanofibers; type: physicochemical; settings: 0.05 % (w/v); for fiber morphology: TEM
Procedure: Transmission electron microscopy (TEM) was used to observe the microstructure of peptides with a Hitachi HT7700 (120 kV) Bio-TEM. The 0.05 % (w/v) RADA16-QLK before and after microbial transglutaminase (mTG) crosslinking were prepared at pH 7. The TEM samples were prepared by dropping 10 μL of peptide solution on the copper grid coated with carbon film and stained with 2 % phosphotungstic acid solution. The morphology of the peptide scaffolds was captured using atomic force microscopy (AFM) (DI Dimension 3100, Veeco Instruments Inc, US) in dynamic force mode. In brief, 0.05 % (w/v) peptide solution was sprayed on the surface of a cleaved mica for 5 min, the surface was then washed with sterilized water for several times and blown dry by anhydrous nitrogen.
as §1

[4] = Oscillatory rheology, frequency sweep; type: physicochemical; settings: for storage modulus (G'): frequency sweep, 1 % strain
Procedure: (§2) The mechanical properties of the hydrogel scaffold were measured using a rheometer (Anton Paar, US). Measurements for the dynamic oscillatory frequency sweep (0.1-100 Hz) were performed at 1% strain amplitude and 25 °C. Shear recovery (1 % strain for 60 s, 50 % strain for 30 s, 1 % strain for 60 s) was conducted for three cycles at 25 °C. All measurements were performed on a 25-mm cone plate and the Anton Paar Rheometer software was used for analysis.
(§3) The 2 % (w/v) RADA16-QLK and RADA16-LRK peptide solutions were mixed in a volume ratio of 3:1, and then introduced into a self-made cylinder mold. PBS buffer or cell culture medium was further added to trigger sol-gel transition. For the crosslinking process, the self-assembled cylindrical hydrogel was soaked into mTG solution (20 U/mL PBS) for 12 h at 38 °C. 40 µL of peptide hydrogel was transferred into a 96-well plate followed by 200 µL of PBS added to each well and incubated at 37 °C. At predetermined time points (3, 12, 24, 72, 168, 336, 504, 672, and 840 h), the supernatant was completely removed by syringe and replenished with fresh PBS. The collected supernatant was then stored at -80 °C for further tests. Ninhydrin reagent solution was employed to quantify the disintegrated peptide amino acid sequences of the hydrogel according to manufacturer's protocols. After the addition of 95 % ethanol to stop the reaction, the absorbance of the hydrogel at 570 nm was measured by a SpectraMax Plus 384 Microplate Reader.
(§4) To test the mechanical stability and stiffness of the peptide hydrogel, frequency sweep and shear recovery measurements were conducted. […] The storage modulus (G') of QLK hydrogel increased from 1000 Pa to 5000 Pa, while the G' of QLK/LRK hydrogel increased from 400 Pa to 2500 Pa (Figure 3A-B). At least a five-fold enhancement in rheological stiffness and the mechanical properties of QLK-functionalized hydrogel were adjustable with mTG treatment. The concentration of transglutaminase also had influence on the mechanical properties of the hydrogel. Basically, the storage modulus (G') of the hydrogel was increased with the increase of mTG concentration. It was measured at pressure levels of 1 kPa, 1.5 kPa, 3 kPa, 5 kPa with respect to the concentrations of 0 U/mL, 5 U/mL, 10 U/mL, 20 U/mL.
Figure 3 Rheological properties of peptide hydrogel.

[5] = Shear recovery (continuous step strain); type: physicochemical; settings: 1 % strain 60 s, 50 % strain 30 s, three cycles, 25 °C, n = 6
Procedure: as §2, §4

[6] = In vitro disintegration in PBS (ninhydrin); type: physicochemical; settings: 2 % (w/v) hydrogel, 37 °C, ninhydrin 570 nm, n = 6; for total disintegration in PBS: 35 days; for disintegration in PBS: first three days
Procedure: as §3
To evaluate the stability of the peptide hydrogel in PBS buffer, Ninhydrin reagent solution was used to quantify the disintegration rate of peptide hydrogel in vitro. […] After this initial period of rapid disintegration, the kinetics slowed down. […] The disintegration rate of hydrogel was slower in the crosslinking group when compared with that in the non-crosslinking group during the investigative time period. Next, we are interested in figuring out if different culture condition will result in different peptide disintegration rate. Thus, another group of peptides incubated in cell culture medium was also conducted for comparison.

[7] = In vitro disintegration in cell culture medium; type: physicochemical; settings: 2 % (w/v) hydrogel, with and without mTG (20 U/mL), n = 6
Procedure: as §3
To evaluate the stability of the peptide hydrogel in PBS buffer, Ninhydrin reagent solution was used to quantify the disintegration rate of peptide hydrogel in vitro. […] After this initial period of rapid disintegration, the kinetics slowed down. […]

[8] = GF loading efficiency (ELISA); type: physicochemical; settings: GF/HS complex in QLK/LRK peptide hydrogel, n = 6
Procedure: (§5) At specific time intervals, the supernatants were collected, stored at -80 °C, and fresh release buffer was compensated. […] After adding the stop solution, the absorbance of the hydrogel at 450/540 nm was recorded by SpectraMax Plus 384 Microplate Reader.
(§6) It was the major challenge for scaffold-based GF delivery that how to maintain the release rate of incorporated GFs.

[9] = GF release profile (ELISA); type: physicochemical; settings: from GAG-assisted QLK/LRK hydrogel, PBS w/ 0.05 % Tween 20, 1 % BSA, 37 °C, n = 6
Procedure: as §5, §6

[10] = system: HUVECs; assay: Endothelial tube-like formation assay; type: cell-based, human; settings: GF released from hydrogel (200 ng, 3 days), 8 h, n = 8, vs basal medium
Procedure: To identify the angiogenic ability of released GFs in vitro, 80 µL of GF-depleted peptide hydrogel was introduced to a pre-cooled 96-well plate using chilled pipet tips. The gel was incubated for 30 min at 37 °C with 5 % CO2 to induce gelation. [drawing 4] HUVECs were first seeded on GF-depleted peptide hydrogel with 100 μL of culture medium and incubated for 8 h. […] Finally, the differentiations of HUVECs were observed periodically for 8 h under an inverted phase contrast microscope. Angiogenesis Analyzer ImageJ (NIH) was employed for quantification and the images were taken in ten random fields per sample.
Figure 5 The human umbilical vein endothelial cells (HUVECs) tube-like formation assay. […] (B) The original images were analyzed by Angiogenesis Analyzer for ImageJ (NIH), and the quantified result of total vessels length, total meshes area, total branches intervals were calculated (all the values were normalized with the analyzed area). […] Error bars show ± S.D. for total n = 8.

[11] = compared with VEGF; ref [20]; cited from earlier work

AcN-RADARADARADARADAGGLRKKLGKA-CONH
HS binding (in words) [1]: good HS binding consensus sequence

AcN-RADARADARADARADAGGQQLK-NH2 [self-assembling peptide with transglutaminase-crosslinkable QQLK motif; forms hydrogel]
secondary structure by CD ([2]; 4 °C overnight, ambient temperature, without mTG): β-sheet secondary structure
secondary structure by CD ([2]; after mTG crosslinking): β-sheet secondary structure
CD negative maximum peak ([2]; after mTG crosslinking): 216 nm
CD positive maximum peak ([2]; after mTG crosslinking): ~195 nm
CD negative maximum peak ([2]; without mTG): 216 nm
CD positive maximum peak ([2]; without mTG): ~195 nm
nanofiber diameter ([3]; TEM and AFM, pH 7): 10-20 nm
pore size of fibrous network ([3]; TEM and AFM, pH 7): 10-200 nm
fiber morphology ([3]; pH 7, after mTG (20 U/mL) crosslinking): more densely-compacted nanofibrous entanglements and more continuous self-assembling fibers
fiber morphology ([3]; pH 7, before enzymatic crosslinking): Sparsely-wired fiber entanglements
enhancement of stiffness / storage modulus by mTG ([4]; after vs before mTG, 25 °C): five-fold increase of storage modulus
storage modulus (G') ([4]; 25 °C, after mTG crosslinking): 5000 Pa
storage modulus (G') ([4]; 25 °C, before mTG crosslinking): 1000 Pa
storage modulus (G') vs mTG concentration ([4]; mTG 0 U/mL): 1 kPa
storage modulus (G') vs mTG concentration ([4]; mTG 5 U/mL): 1.5 kPa
storage modulus (G') vs mTG concentration ([4]; mTG 10 U/mL): 3 kPa
storage modulus (G') vs mTG concentration ([4]; mTG 20 U/mL): 5 kPa
shear thinning / shear recovery [5]: shear thinning and a potential shear recovery ability
total disintegration in PBS ([6]; mTG-crosslinked (20 U/mL)): approximately 61%
total disintegration in PBS ([6]; non-crosslinked): ~82%
disintegration in PBS ([6]; mTG-crosslinked (20 U/mL)): 20%
disintegration in PBS ([6]; non-crosslinked): 40%
disintegration in cell culture medium vs PBS [7]: degraded faster in the culture medium condition compared to that in PBS, especially in the group without crosslinking

HGF: Recombinant Human HGF (HEK293 derived); hepatocyte growth factor
loading efficiency [8]: ~82.5 ± 2.1%
cumulative release, total ([9]; 28 days, ELISA): approximately 46%
cumulative release, initial ([9]; day 3, ELISA): 25%
tube-like formation of HUVECs [10]: positive effect on tube-like formation of HUVECs
binding affinity with heparin or HS (in words) [11]: higher binding affinity with heparin or HS than VEGF

VEGF
tube-like formation of HUVECs [10]: positive effect on tube-like formation of HUVECs
